Key:
[1] = molecular target: T1, human sphingosine-1-phosphate receptor 1 (S1P1) (Homo sapiens (Human), UniProt P21453); assay: Inhibition of cAMP production (HTRF cAMP HiRange), S1P1 CHO-K1 cells; type: cell-based; conditions: for hS1P1 cAMP pEC50: inhibition of cAMP production, S1P1 CHO-K1 cells; for Emax: CHO-K1, efficacy (SPAN) normalized to fingolimod, read-out: hS1P1 cAMP SPAN
Procedure, shortened: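 CHO-K1 cells stably co-expressing human S1P1 (C-terminal Prolink tag) and EA-β-arrestin2 were grown in AssayComplete Media 6 at 37° C. and 5% CO2, plated, and incubated overnight. Agonist-driven inhibition of intracellular cAMP was read by TR-FRET with the HTRF cAMP HiRange kit on a PheraStar reader. Potency is pEC50, and efficacy (SPAN) is normalized to fingolimod.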
Target sequence in this assay (P21453 whole entry, looked up): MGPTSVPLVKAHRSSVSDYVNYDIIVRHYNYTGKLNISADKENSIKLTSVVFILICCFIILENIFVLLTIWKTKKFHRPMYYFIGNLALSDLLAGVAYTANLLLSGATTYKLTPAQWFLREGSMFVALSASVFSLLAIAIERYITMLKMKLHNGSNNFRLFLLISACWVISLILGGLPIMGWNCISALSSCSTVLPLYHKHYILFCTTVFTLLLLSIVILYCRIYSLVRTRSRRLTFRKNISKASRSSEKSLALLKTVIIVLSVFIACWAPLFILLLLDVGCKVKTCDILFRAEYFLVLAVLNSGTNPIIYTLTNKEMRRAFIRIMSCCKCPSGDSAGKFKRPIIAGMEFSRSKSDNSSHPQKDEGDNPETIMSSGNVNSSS

[2] = molecular target: T1, human sphingosine-1-phosphate receptor 1 (S1P1); assay: β-Arrestin2 recruitment assay (PathHunter), S1P1 CHO-K1 cells; type: cell-based; conditions: for hS1P1 B-arrestin2 pEC50: β-arrestin2 recruitment, S1P1 CHO-K1 cells; for Emax: CHO-K1, efficacy (SPAN) normalized to fingolimod, read-out: hS1P1 B-arrestin2 SPAN
Procedure, shortened: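 Enzyme-fragment complementation read-out: agonist-driven β-arrestin2 binding to ProLink-tagged human S1P1 in stable CHO-K1 cells restores β-galactosidase, measured 1 h at room temperature after a 60 min 37° C. compound incubation. Potency as pEC50, efficacy relative to fingolimod (SPAN).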
Target sequence in this assay (P21453 whole entry, looked up): as above
Target sequence in this assay (P32121 whole entry partner, looked up): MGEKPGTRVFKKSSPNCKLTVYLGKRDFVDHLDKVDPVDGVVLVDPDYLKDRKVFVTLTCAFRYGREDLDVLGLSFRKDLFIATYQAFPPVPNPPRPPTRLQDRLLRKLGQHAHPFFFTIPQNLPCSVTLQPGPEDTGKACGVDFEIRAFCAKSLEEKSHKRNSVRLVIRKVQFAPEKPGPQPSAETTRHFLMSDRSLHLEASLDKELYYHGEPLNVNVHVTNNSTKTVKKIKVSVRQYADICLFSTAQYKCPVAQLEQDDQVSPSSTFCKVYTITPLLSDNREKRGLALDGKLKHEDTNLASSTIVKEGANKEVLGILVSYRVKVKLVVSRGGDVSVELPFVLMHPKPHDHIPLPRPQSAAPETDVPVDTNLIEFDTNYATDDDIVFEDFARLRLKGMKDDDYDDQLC

Compound	hS1P1 cAMP pEC50 [1]	hS1P1 B-arrestin2 pEC50 [2]	Emax [1] [%]	Emax [2] [%]
CC(C)n1nnc2cc(-c3nc(-c4cncnc4)no3)ccc21 [Compound 249, 1-(propan-2-yl)-5-[3-(pyrimidin-5-yl)-1,2,4-oxadiazol-5-yl]-1H-1,2,3-benzotriazole]	<6.5	<5		
CC(C)n1nnc2cc(-c3noc(-c4ccccc4Br)n3)ccc21 [Compound 43, 5-(2-bromophenyl)-3-(1-isopropyl-1H-benzo[d][1,2,3]triazol-5-yl)-1,2,4-oxadiazole]	>6.5	>5		
CCC1(CC)CC(=O)c2cc(-c3nc(-c4ccncc4O)no3)ccc2O1 [Compound 312, 2,2-diethyl-6-(3-(3-hydroxypyridin-4-yl)-1,2,4-oxadiazol-5-yl)chroman-4-one]	<6.5	<5	> 75	> 75
CC(C)(O)Cn1nnc2cc(-c3nc(-c4cccc5cc[nH]c45)no3)ccc21 [Compound 577, 1-{5-[3-(1H-indol-7-yl)-1,2,4-oxadiazol-5-yl]-1H-1,2,3-benzotriazol-1-yl}-2-methylpropan-2-ol]	<6.5	>5	< 75	< 75
CC(C)Oc1ccccc1-c1noc(-c2ccc3c(c2)nnn3C(C)C)n1 [Compound 62, 3-(2-isopropoxyphenyl)-5-(1-isopropyl-1H-benzo[d][1,2,3]triazol-5-yl)-1,2,4-oxadiazole]	<6.5	<5		
Cc1ccncc1-c1noc(-c2ccc3nnn(C(C)C)c3c2)n1 [Compound 264, 6-[3-(4-methylpyridin-3-yl)-1,2,4-oxadiazol-5-yl]-1-(propan-2-yl)-1H-1,2,3-benzotriazole]	<6.5	<5	< 75	< 75
COc1cccnc1-c1nc(-c2ccc3c(c2)nnn3C(C)C)no1 [Compound 612, 3-(1-isopropyl-1H-benzo[d][1,2,3]triazol-5-yl)-5-(3-methoxypyridin-2-yl)-1,2,4-oxadiazole]	>6.5	>5	< 75	> 75
CC(C)Nc1ccc(-c2nnc(-c3ccc4c(c3)ncn4CCO)o2)cc1C#N [Compound 574, 5-{5-[1-(2-hydroxyethyl)-1H-1,3-benzodiazol-5-yl]-1,3,4-oxadiazol-2-yl}-2-[(propan-2-yl)amino]benzonitrile]	<6.5	<5		
Cc1ccncc1-c1noc(-c2ccc3c(c2)nnn3CC(C)(C)O)n1 [Compound 206, 2-methyl-1-{5-[3-(4-methylpyridin-3-yl)-1,2,4-oxadiazol-5-yl]-1H-1,2,3-benzotriazol-1-yl}propan-2-ol]	<6.5	<5	> 75	< 75
CSc1cccc(-c2nc(-c3ccc4c(c3)nnn4C3CCCC3)no2)c1 [Compound 47, 3-(1-cyclopentyl-1H-benzo[d][1,2,3]triazol-5-yl)-5-(3-(methylthio)phenyl)-1,2,4-oxadiazole]	<6.5	<5		
COc1ccc(-c2nc(-c3ccc4c(c3)nnn4CC(C)(C)CO)no2)c(C)c1 [Compound 523, 3-(5-(5-(4-methoxy-2-methylphenyl)-1,2,4-oxadiazol-3-yl)-1H-benzo[d][1,2,3]triazol-1-yl)-2,2-dimethylpropan-1-ol]	<6.5	<5		
COc1ccc(-c2nc(-c3ccc4c(c3)nnn4C3CCCC3)no2)cc1 [Compound 196, 3-(1-cyclopentyl-1H-benzo[d][1,2,3]triazol-5-yl)-5-(4-methoxyphenyl)-1,2,4-oxadiazole]	<6.5	<5		

Reference: US11912693B2, “Compounds for modulating S1P1 activity and methods of using the same” (TREVENA, INC., priority 2017, dated 2024)
